# Test results as given in US20230302131A1, “MPC INHIBITION FOR PRODUCING T-CELLS WITH A MEMORY PHENOTYPE” (UNIVERSITÉ DE LAUSANNE, priority 2020, published 2023).
# Entries after “also recorded” stand apart in the source; their conditions may differ.
# Experiments:
# [1] = test system: transferred OT1 CD8 T cells; ovalbumine-expressing B16 melanoma; experiment: Vaccination model with UK5099 as vaccine adjuvant, then B16 melanoma challenge; assay type: in vivo, mouse; settings: vs DMSO; for control of B16 tumor growth after challenge: 0.5 mg s.c. at d0 and d2, B16 challenge 40 days post-vaccination, tumor growth and weight
# From the text: One of the main goals of preventive and therapeutic vaccination in the context of pathogen infection and cancer is the establishment of a potent memory CD8 T cell pool. Since it was observed that MPC inhibition during in vitro priming of antigen-specific CD8 T cells increases their memory formation, it was investigated whether the MPCi could be used as a vaccine adjuvant. 10^5 naïve OT1 CD8 T cells were […] in healthy mice and the mice were subsequently vaccinated by a subcutaneous injection of 50 μg CpG and 10 μg SIINFEKL containing additionally 0.5 mg UK5099 or and equal volume of DMSO as control. 48 hours later, the mice received another subcutaneous injection of 0.5 mg UK5099 or and equal volume of DMSO (FIG. 4A). […] It was investigated whether this would render them better prepared for a subsequent antigen challenge, and injected 10^5 ovalbumine-expressing B16 melanoma cells s.c. in the flank of the mice at 40 days post-vaccination (FIG. 4A).
# Naïve CD8 T cells were isolated from OT1 spleens (negative selection, Stem Cell Technologies). 1×10^5 T cells were i.v. transferred in WT C57BL/6 mice, followed by a subcutaneous injection of the vaccine, consisting of 10 μg SIINFEKL peptide, 50 μg CpG and 0.5 mg UK5099 or DMSO diluted in a total of 100 μl PBS per mouse. 2 days post-vaccination, mice received a second dose of s.c. 0.5 mg UK5099 or DMSO. After 2 weeks, blood was collected from the tail vein and analyzed by flow cytometry. 40 days post-vaccination, mice were challenged by an s.c. injection of 1×10^5 SIINFEKL-expressing B16 melanoma cells. 17 days later, mice were sacrificed and the tumor was dissected.
# [2] = test system: OT1 splenocytes; experiment: Metabolomics, acetyl-CoA and 13C tracing by mass spectrometry; assay type: cell-based, mouse
# From the text: (§1) Mechanistically, it was hypothesized by the inventors that epigenetic processes might underlie the observed long-term memory phenotype and anti-tumor activity upon metabolic intervention with MPCi. […] Since acetyl-CoA is the acetyl donor for the acetylation of proteins, amongst which also histones, histone post-translational modifications were examined that are known to make chromatin accessible to transcription factors, a characteristic of memory T cells. […] These are marks known to open chromatin and make it accessible for transcription factor docking. […] Amongst those were Sell, Tcf7 and Ccr7, thereby correlating accessible chromatin with increased mRNA copies (FIG. 3E and see above).
# OT1 splenocytes were activated and cultured as described above. After 66 hours, the cells were collected and the medium was replaced with glucose- and glutamine-free RPMI, supplemented with 10% dialyzed FBS, 1% P/S, 10 mM HEPES, 50 μM β-mercaptoethanol and either 11 mM normal glucose or 11 mM U-^13C6-glucose (Cambridge Isotopes) with respectively 4 mM ^13C5-glutamine (Cambridge Isotopes or 4 mM normal L-glutamine. After 6 hours labelling at 37° C., cells were collected and lysed in Methanol. Next Chloroform was added, and after centrifugation, the fraction containing the polar metabolites was collected and dried on a SpeedVac. Samples were then resuspended and loaded on a mass spectrometer. The spectra of AcetylCoA were analyzed with the M+0 representing the unlabeled fraction, and the M+2 representing the Acetyl group derived from the ^13C-labelled substrate (glucose or glutamine).
# [3] = test system: human CD4 T cells; experiment: Human cord blood PBMC culture, CD62L in CD3-pos/CD8-neg (CD4) T cells; assay type: cell-based; settings: 25 μM; day 11; vs DMSO
# Description: Peripheral blood mononuclear cells were isolated from fresh umbilical vein cord blood on a Percoll gradient. PBMCs were then cultured in RPMI supplemented with 10% human serum. 10^4 PBMC's were seeded per well in a round bottom 96-well plate and activated with anti-CD3/CD28 beads at a 1:2 cell:bead ratio and 300 U/ml rhIL-2, in the presence of 25 μM UK5099 or DMSO. Cells were regularly split and CD62L expression was determined by flow cytometry on day 11.
# CD62L expression in human CD4 T cells was also analyzed. Human cord blood PBMCs were cultured and activated as described before, in the presence of 25p M UK5099 or DMSO control. About 98% of the cells in culture on day 11 are CD3-positive. Since CD3 is exclusively expressed on CD4 and CD8 T cells, we can deduct that all CD3-positive, CD8-negative must be CD4 T cells. When analyzing the CD3-pos/CD8-neg population we observed that CD62L expression is increased upon MPCi treatment (FIG. 5D).
# [4] = test system: histone 3 (H3K4-3Me, H3K27-Ac) in CD8 T cells; experiment: Western blot of histone 3 modifications; assay type: cell-based, mouse
# From the text: as §1
# Cells were lysed in RIPA lysis buffer (50 mM TrisHCl pH8, 150 mM NaCl, 1% Triton X 100, 0.5% Sodium deoxycholate, 0.1% SDS) and Halt protease/phosphatase cocktail inhibitors (Roche) and denatured by heat. Proteins were quantified by BCA protein assay kit (Thermo Scientific). Proteins were separated on 12.5% polyacrylamide gradient gels and transferred onto nitrocellulose membranes 0.2 μm (Biorad). Non-specific binding sites were blocked in milk 5% and membranes were incubated with primary antibodies (Cell Signaling). […]
compound,measurement,setting,value
"N#CC(=Cc1cn(-c2ccccc2)c2ccccc12)C(=O)O [UK5099, 2-cyano-3-(1-phenyl-1H-indol-3-yl)-2-propenoic acid]",control of B16 tumor growth after challenge,[1],protects against tumor growth
same,control of B16 tumor growth after challenge,[1]; listed as MPCi,much better in controlling the tumor growth
same,proportion of transferred OT1 CD8 T cells that formed memory precursor cells,"[1]; 0.5 mg s.c. at d0 and d2 with CpG and SIINFEKL, blood 14 days after vaccination",drives a memory phenotype; also recorded: increased proportion
same,13C-glutamine incorporation into acetyl-CoA,[2]; 6 hours labelling,incorporated dramatically more
same,13C-labeled glucose incorporation into acetyl-CoA,[2]; 6 hours labelling,incorporating less
same,total acetyl-CoA levels,"[2]; mass spectrometry, vs DMSO",strong increase
same,CD62L expression in human CD3-pos/CD8-neg (CD4) T cells,[3],increased
same,acetylation of lysine 27 on histone 3 (H3K27-Ac),[4],increase
same,trimethylation of lysine 4 on histone 3 (H3K4-3Me),[4],increase
